d = 2'-deoxy (DNA); r = 2'-OH (RNA)
Experiments:
HepG2 cells [1] = experiment: mRNA (real-time PCR) and protein (lysate probing) expression in HepG2 cells; type: cell-based, human
Experimental: (§1) Using RNAiMAX (Life Technologies/Thermo Fisher Scientific), HepG2 cells, Huh6 cells, Hep3B cells, JHH7 cells, and SKMEL28 cells were each transfected with each siRNA (10 nm). In experiments, the cells were used from 48 to 120 hours after transfection.

MCF7 = experiment: mRNA expression in MCF7 cells by real-time PCR; type: cell-based, human
[2] = tested on: mouse fetal liver cells (BMEL); experiment: mRNA expression in BMEL cells by real-time PCR; type: cell-based; conditions: CHIR99021 final concentration 5 μM
[3] = tested on: HLE, SNU-387 SNU-449, and Huh7; experiment: mRNA expression in hepatocellular cancer cells after CHIR99021 by real-time PCR; type: cell-based, human; conditions: SNU-387, SNU-449, Huh7, CHIR99021 final concentration 5 μM
Huh6 cells = experiment: mRNA expression in Huh6 cells by real-time PCR; type: cell-based, human; conditions: as in mRNA expression of Axin2
Experimental: Next, the mechanism for regulating expression of GREB1 in hepatoblastoma by YAP and c-Met was investigated. […] However, in Huh6 cells and HepG2 cells, knockdown of YAP/TAZ had no effect on expression of GREB1 (see b of FIG. 13). Further, when Huh6 cells was treated with CHIR99021, or treated with XMU-MP1, which has an inhibitory effect on Mst1/2 kinase and is an activator of YAP, or treated with CHIR99021 and XMU-MP1 in combination, mRNA expression of GREB1 was suppressed as in mRNA expression of Axin2 (see c of FIG. 13).

GREB1 = GREB1 expression in HepG2 cells after GREB1 siRNA or GREB1 ASO (cell lysates probed with anti-GREB1 antibody); type: cell-based, human; conditions: siRNA 10 nm, lysate probing
Experimental: Phosphorothioated I5-mer antisense oligonucleotides (ASOs) containing AmNA monomers were prepared (synthesized by GeneDesign (Ibaraki, Japan)). In the present specification, “hGREB1-6424-AmNA (15)” is sometimes simply referred to as “ASO-6424” or “GREB1 ASO-6424”. Similar abbreviations are used for describing other ASOs. Using RNAiMAX (Invitrogen, Carlsbad, Calif., USA), HepG2 or COLO679 cells were transfected with 10 nM of ASOs. In experiments, the cells were used from 36 to 48 hours after transfection.
as §1
As reported previously, knockdown of β-catenin decreased HepG2 cell proliferation (see a of FIG. 3). […] Thus, to elucidate the role of GREB1 in HepG2 cells, knockdown of GREB1 was carried out using two different siRNAs.
Next, HepG2 cells were transfected with control ASO or each of the above-described GREB1 ASOs, cultured in a medium containing 10% FBS for 2 days, and the cell lysates were probed with anti-GREB1 antibody and anti-HSP90 antibody.

HepG2 cells [4] = experiment: Cell proliferation assay, two-dimensional culture (plastic dish), Cyquant; type: cell-based, human
Experimental: Cells were seeded on a plate at 1.0×10^4 cells/mL, and, after 12 hours, the medium was replaced with a medium containing 10% serum. While the cell number was counted every 48 hours, the cells were cultured up to 10 days. The measurement of the cell number was performed using Cyquant NF assays (Life Technologies/Thermo Fisher Scientific) according to protocols recommended by the manufacturer.
Mock HepG2 cells (having a vector only, containing no GREB1) or GREB1-transduced HepG2 cells were transfected with control siRNA or two different types of siRNA (GREB1 #1 siRNA and GREB1 #2 siRNA), then two-dimensional culture (plastic dish culture) was performed, and a relative cell number was calculated by Cyquant assay overtime. As a result, in GREB1 knockdown, proliferative capacity of HepG2 cells in two-dimensional culture was reduced. However, when GREB1-transduced HepG2 cells were transfected with siRNAs against GREB1 (GREB1 #1 siRNA/GREB1 and GREB1 #2 siRNA/GREB1), the proliferative capacity of HepG2 cells was not affected (see a of FIG. 4).

HepG2 cells [5] = experiment: Cell viability by propidium iodide and Hoechst33342 staining; type: cell-based, human; conditions: medium without Z-VAD, 0.1% FBS, 2 days; PI and Hoechst33342
Experimental: Further, HepG2 cells were transfected with control siRNA or siRNAs (GREB1 #1 siRNA and GREB1 #2 siRNA), cultured in media (caspase inhibitor Z-VAD was contained in one condition, and not contained in the other condition) containing 0.1% FBS for 2 days, stained with propidium iodide (PI, […]) and Hoechst33342 (nucleus), and the cell viability was evaluated.
Further, HepG2 cells transfected with control siRNA, GREB1 siRNA (GREB1 #2 siRNA), p15 siRNA, or siRNA of GREB1 (GREB1 #2 siRNA) and siRNA of p15 in combination were cultured in media (caspase inhibitor Z-VAD was contained in one condition, and not contained in the other condition) containing 0.1% FBS for 2 days, stained with propidium iodide (PI) and Hoechst33342, and the cell viability was calculated.

liver tumors of BYM mice = experiment: Tumorigenesis by HTVi (hydrodynamic tail vein injection), BYM mice with GREB1 shRNA; type: in vivo
Experimental: In the presence of Greb1 shRNA #3 (SEQ ID NO: 8) (20 μg) or control, and pLIVE-SB13 (8 μg), pT2BH-YAPS127A (20 μg), pT2BH-ΔN90 β-catenin-mutLuc3 (20 μg), pT3-EF1a-cMET (20 μg), and GFP2ALuc were diluted in 2.5 ml of physiological saline, and injected into tail veins of 8- to 9-week old male wild-type C57BL6/N mice within 5 to 7 seconds. Livers of the mice were collected at a predetermined time after injection (or at occurrence of the tumor), and various parameters associated with tumorigenesis were assessed. Specifically, this assessment was performed according to techniques described in Tao, J. et al., (2014). Gastroenterology 147, 690-701 and Tward, A. D. et al, (2007). Proc Natl Acad Sci USA 104, 14771-14776. In this evaluation, ΔN90 β-catenin refers to a β-catenin mutant in which amino acids at positions 1 to 90 of human ft-catenin were deleted, and YAPS127A refers to a YAP mutant in which serine at positon 127 of YAP was substituted by alanine.
Further, ΔN90 β-catenin, YapS127A, and c-Met were administered to mice together with GREB1 shRNA, and the livers were collected 7 to 8 weeks after administration. As a result, in mice transduced with ΔN90 β-catenin, YAPS127A, and c-Met (BYM mice, control), a plurality of nodules were observed on the entire surfaces of the livers (see a of FIG. 14). On the other hand, in mice transduced with GREB1 shRNA together with ΔN90 β-catenin, YAPS127A, and c-Met (BYM GREB1 KD mice), the nodules in the liver were suppressed (see a of FIG. 14).

[6] = CHIR99021 in the presence or absence of ICI-182,786
[7] = BYM+ GREB1 shRNA mouse vs BYM mouse without knockdown
[8] = tumor nodules of BYM GREB1 KD mice K2 and K4, real-time PCR

C[C@]12CC[C@@H]3c4ccc(O)cc4C[C@@H](CCCCCCCCC[S+]([O-])CCCC(F)(F)C(F)(F)F)[C@H]3[C@@H]1CC[C@@H]2O (stereo partly drawn) [ICI-182,786]
expression level of GREB1 mRNA (HepG2 cells [1]; HepG2 cells treated for 48 hours, real-time PCR): not affected | expression of GREB1 (MCF7; ICI-182,786 treatment, real-time PCR): dramatically decreased | mRNA expression of PAI-1 (MCF7; estrogen receptor antagonist treatment): suppresses

Cc1c[nH]c(-c2cnc(NCCNc3ccc(C#N)cn3)nc2-c2ccc(Cl)cc2Cl)n1 [CHIR99021]
expression of Axin2 (MCF7; [6]): increased | expression of GREB1 (MCF7; [6]): not increased | expression of GREB1 [2]: increased | expression of Axin2 [3]: increased | expression of GREB1 [3]: not increased | mRNA expression of GREB1 (Huh6 cells): suppressed

GREB1 #1 siRNA: siRNA against human GREB1; sense 5′-GCCAUUCGUGUGCUUCCAUTT-3′ (SEQ ID NO: 4), antisense SEQ ID NO: 5 (antisense AUGGAAGCACACGAAUGGCTT; sugars from the 5' end r19 d2, backbone not given here)
amounts of cleaved caspase 3 and PARP1 (HepG2 cells [1]; HepG2 cells, 0.1% FBS for 2 days, lysate probing): increased | expressions of β-catenin and Axin2 (HepG2 cells [1]; HepG2 cells, GREB1 knockdown, lysate probing): no effect | expression of cell cycle regulators cyclinA, cyclinB, phosphorylated histone H3 (HepG2 cells [1]; HepG2 cells, medium containing 1% FBS for 1 day, lysate probing): decreases | knockdown of GREB1 (anti-GREB1 antibody) (GREB1): knocked down | proliferative capacity of HepG2 cells in two-dimensional culture (HepG2 cells [4]; GREB1-transduced HepG2 cells): not affected | proliferative capacity of HepG2 cells in two-dimensional culture (HepG2 cells [4]; mock HepG2 cells, relative cell number by Cyquant over time): reduced | cell death of HepG2 cells (HepG2 cells [5]): elevated cell death

GREB1 shRNA: shRNA against mouse Greb1, encoding DNA SEQ ID NO: 8, given as pT2BH-GFP2ALuc plasmid by hydrodynamic injection (DNA CCGGCTACTTTGTTAGCAATGATATCTCGAGATATCATTGCTAACAAAGTAGTTTTTTG)
incidence rate of tumorigenesis (liver tumors of BYM mice; BYM GREB1 KD mice K1 to K6): decreased | mice in which any tumor was not observed (liver tumors of BYM mice; BYM GREB1 KD mice K1 to K6): 4 out of the 6 | nodules in the liver (liver tumors of BYM mice; BYM mice, livers collected 7 to 8 weeks after administration, shRNA plasmid 20 μg HTVi): suppressed | serum AFP level (liver tumors of BYM mice; [7]): dramatically decreased | weight of the liver (liver tumors of BYM mice; [7]): dramatically decreased | GREB1 mRNA expression levels in tumors (liver tumors of BYM mice; [8]): low | expression levels of DLK1 and TACSTD1 in tumors (liver tumors of BYM mice; [8]): the same as those of the GREB1 low group of BYM mice

CN1C(=O)c2sccc2N(C)c2nc(Nc3ccc(S(N)(=O)=O)cc3)ncc21 [XMU-MP1]
mRNA expression of GREB1 (Huh6 cells): suppressed

Reference: US20220249538A1, “TREATMENT AGENT FOR SEX HORMONE-INSENSITIVE GREB1-POSITIVE TUMORS” (OSAKA UNIVERSITY, priority 2019, published 2022)
